{
  "source": "patent US20040039053A1",
  "about": "“Use of(-) (3-halomethylphenoxy) (4-halophenyl) acetic acid derivatives for treatment of insulin resistance, type 2 diabetes, hyperlipidemia and hyperuricemia” (priority 2000, published 2004)",
  "key": {"[1]": {"system": "Zucker Diabetic Fatty rats", "assay": "Lipid lowering activity in Zucker Diabetic Fatty rats (Example 11)", "format": "in vivo", "conditions": "ZDF rats; for plasma cholesterol course during treatment, in words: 13 days, racemate 50 mg/kg/day, enantiomers 25 mg/kg/day", "protocol": "Male Zucker diabetic fatty (ZDF) rats were obtained from GMI Laboratories (Indianapolis, Ind.) at 9 weeks of age. Vehicle or enantiomers of halofenate administered by oral gavage on a daily basis starting at 74 days of age. Initial blood samples were obtained for analysis one day before treatment and at the indicated times in the treatment protocol. Blood was analyzed for plasma triglyceride and cholesterol by standard techniques."}, "diabetic ob/ob mice [2]": {"system": "diabetic ob/ob mice", "assay": "Time course of glucose-lowering after a single oral dose in ob/ob mice (Example 8)", "format": "in vivo", "conditions": "single oral dose 250 mg/kg"}, "patients with diabetes": {"system": "patients with diabetes", "conditions": "cited from earlier work"}, "diabetic ob/ob mice [3]": {"system": "diabetic ob/ob mice", "assay": "Glucose and insulin lowering on daily oral administration for 5 days in ob/ob mice (Example 9)", "experimental": "Animals were housed (4-5 mice/cage) under standard laboratory conditions at 22° C. and 50% relative humidity, and were maintained on a diet of Purina rodent chow and water ad libitum. Prior to treatment, blood was collected from the tail vein of each animal. Mice that had non-fasting plasma glucose levels between 300 and 520 mg/dL were used. Each treatment group consisted of 10 mice that were distributed so that the mean glucose levels were equivalent in each group as the start of the study. […] The gavage volume was 10 ml/kg. Blood samples were taken at 3, 6, 27, 30 and 120 hour after the first dose and analyzed for plasma glucose and insulin. The animals were fasted overnight (14 hours) before the 120 hours sampling. Plasma glucose concentrations were determined calorimetrically using glucose oxidase method (Sigma Chemical Co, St. Louis, Mo., USA). Plasma insulin concentrations were determined by using the Rat Insulin RIA Kit from Linco Research Inc. (St. Charles, Mo., USA). Significance difference between groups (comparing drug-treated to vehicle-treated) was evaluated using Student unpaired t-test."}, "Zucker fatty rats [4]": {"system": "Zucker fatty rats", "assay": "Oral glucose challenge in Zucker fatty rats (Example 10)", "format": "in vivo", "conditions": "racemate 100 mg/kg, enantiomers 50 and 100 mg/kg; for incremental glucose area under the curve (AUC) vs control, in words: single oral dose", "protocol": "(§1) Prior to treatment, rats were assigned to 6 groups based on body weight. Each treatment group consisted of 8 rats. […] The gavage volume was 10 ml/kg. All rats received an oral glucose challenge (1.9 g/kg) 5.5 hours after the treatment and 4 hours after withdrawal of the food. Blood samples were taken at 0, 15, 30, 60, 90, 120, and 180 minutes following the glucose challenge for plasma glucose measurement. […] On day 5, rats received the intravenous insulin (0.75 U/kg) 5.5 hours after the last dose and 4 hours after withdrawal of the food. Blood samples were taken at 3, 6, 9, 12, 15 and 18 minutes following the insulin injection for plasma glucose measurement."}, "[5]": {"molecular_target": "T1, cytochrome P450 2C9 (CYP2C9) (Homo sapiens, UniProt P11712)", "T1 sequence (P11712 whole entry)": "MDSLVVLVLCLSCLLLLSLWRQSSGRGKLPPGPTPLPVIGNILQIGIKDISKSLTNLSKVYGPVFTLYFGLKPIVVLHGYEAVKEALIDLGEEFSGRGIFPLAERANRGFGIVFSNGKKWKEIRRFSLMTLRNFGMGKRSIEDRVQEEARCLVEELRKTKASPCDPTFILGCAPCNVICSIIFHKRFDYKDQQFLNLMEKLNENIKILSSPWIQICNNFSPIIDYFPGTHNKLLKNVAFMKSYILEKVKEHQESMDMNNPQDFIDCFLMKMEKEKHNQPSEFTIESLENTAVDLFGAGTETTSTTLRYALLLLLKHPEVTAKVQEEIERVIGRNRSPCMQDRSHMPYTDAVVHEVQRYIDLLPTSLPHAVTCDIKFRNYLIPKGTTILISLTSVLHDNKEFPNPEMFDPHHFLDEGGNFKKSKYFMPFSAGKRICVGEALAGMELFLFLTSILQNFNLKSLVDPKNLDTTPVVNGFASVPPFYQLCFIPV", "assay": "biochemical", "experimental": "(§2) Tolbutamide hydroxylation activity (100 μM C-tolbutamide; 1 mM NADPH) was assayed in pooled human liver microsomes (0.6 mg protein/ml)) for 60 minutes at 37° C. both with and without test compounds."}, "[6]": {"molecular_target": "T1, cytochrome P450 2C9 (CYP2C9)", "assay": "Inhibition of CYP2C9 tolbutamide hydroxylation activity in pooled human liver microsomes (Example 7)", "experimental": "as §2"}, "Zucker fatty rats [7]": {"system": "Zucker fatty rats", "assay": "Short insulin tolerance test in Zucker fatty rats (Example 10)", "format": "in vivo", "conditions": "50 mg/kg/day for 5 days", "protocol": "as §1"}, "[8]": {"system": "oxonic acid induced hyperuricemic rats", "assay": "Plasma uric acid in oxonic acid induced hyperuricemic rats (Example 17)", "format": "in vivo", "conditions": "oxonic acid hyperuricemic SD rats, oral 50 mg/kg for 3 days, 100 mg/kg on day 4, 6 hours post gavage", "text": "Male SD rats, weight 275-300 g were purchased from Charles River. […] To establish a hyperuricemic state, animals were put on a diet containing 2.5% (w/w) of oxonic acid (Sigma Chemical Co, St. Louis, Mo., USA) throughout the experiment. Oxonic acid elevates plasma uric acid by inhibiting uricase. Rats were screened for plasma uric acid levels 3 days after they were placed on the diet, and those that had extreme plasma uric acid levels were excluded. Rats were assigned to one of three groups and the mean uric acid levels were equivalent in each group. […] Oxonic acid was delivered in a liquid formulation containing 0.9% (w/v) methylcellulose. The gavage and injection volumes were 5 ml/kg. Blood samples were taken at 6 hours post oral gavage on day 4. Plasma uric acid levels were determined colorimetrically using the Infinity Uric Acid Reagent (Sigma Chemical Co, St. Louis, Mo., USA)."}, "ZDF rats": {"system": "ZDF rats", "assay": "Plasma glucose in ZDF rats, (−) versus (+) halofenate (Example 13)", "format": "in vivo", "conditions": "50 mg/kg oral once a day for 3 days", "protocol": "Male 8-9 week old ZDF rats were purchased from Genetic Models, Inc. (Indianapolis, Ind.). […] Rats that had 4-hour fasting plasma glucose levels between 200 and 500 mg/dL were used. […] The gavage volume was 5 ml/kg. Blood samples were taken at 5 hours post dose on day 2 and 3."}, "[9]": {"assay": "Pharmacokinetic study in SD rats, chiral HPLC of plasma halofenic acids (Example 14)", "format": "in vivo", "conditions": "single oral dose of (−) halofenate 50 mg/kg", "protocol": "Male 225-250 g SD rats were purchased from Charles River. […] A catheter was placed in the left carotid artery under sodium pentobarbital (50 mg/kg i.p.) and animals were allowed to recover for 2 days before treatment. […] The gavage volume was 5 ml/kg. Blood samples were collected at 1, 2, 4, 6, 8, 12, 24, 48, 72, 96 and 120 hours post dose. The plasma samples were analyzed for each enantiomeric acid ((−) halofenic acid and (+) halofenic acid) by a chiral specific HPLC assay, since the esters are prodrugs, which are designed to convert to their respective enantiomeric acids in vivo."}, "[10]": {"conditions": "250 mg/kg/day oral, listed as (+) enantiomer, 250 mg/kg/day"}},
  "note": "“And” between values parts separate entries of the source, which are not always exact repeats. Equal entries are not always repeated.",
  "data": [
    {"molecule": "CC(=O)NCCOC(=O)C(Oc1cccc(C(F)(F)F)c1)c1ccc(Cl)cc1", "note": "(racemic) [racemic halofenate, 2-acetamidoethyl (4-chlorophenyl) (3-trifluoromethylphenoxy) acetate, reference compound]", "values": [
      {"measurement": "plasma cholesterol course during treatment, in words", "setting": "[1]", "value": "plasma cholesterol declined with treatment"},
      {"measurement": "time of peak glucose-lowering activity", "setting": "diabetic ob/ob mice [2]", "value": 9, "unit": "h"},
      {"measurement": "time points with significant (p<0.05) decrease in glucose compared to control", "setting": "diabetic ob/ob mice [2]", "value": "most of the timepoints"},
      {"measurement": "side effects noted", "setting": "patients with diabetes; previous studies", "value": "gastrointestinal bleeding from stomach and peptic ulcers"},
      {"measurement": "effect on glucose in patients with diabetes", "setting": "patients with diabetes; treated with racemic halofenate alone", "value": "minimal effect on glucose"},
      {"measurement": "time points with significant plasma glucose reduction vs control", "setting": "diabetic ob/ob mice [3]; 250 mg/kg/day oral", "value": "Significant decreases in glucose levels"},
      {"measurement": "time points with reduced plasma insulin vs control", "setting": "diabetic ob/ob mice [3]; 250 mg/kg/day oral, listed as racemate, 250 mg/kg/day", "value": "insulins were lower"},
      {"measurement": "plasma glucose after oral glucose challenge, in words", "setting": "Zucker fatty rats [4]; single oral dose 5.5 hours before challenge", "value": "plasma glucose was reduced"},
      {"measurement": "incremental glucose area under the curve (AUC) vs control, in words", "setting": "Zucker fatty rats [4]", "value": "not statistically significant"}
    ]},
    {"molecule": "O=C(O)C(Oc1cccc(C(F)(F)F)c1)c1ccc(Cl)cc1", "note": "(racemic) [racemic halofenic acid, 4-Chlorophenyl-(3-trifluoromethylphenoxy)-acetic Acid]", "values": [
      {"measurement": "IC50", "setting": "[5]", "value": 450, "unit": "nM"},
      {"measurement": "inhibition of cytochrome P450 2C9, in words", "setting": "[6]", "value": "found to inhibit cytochrome P450 2C9"}
    ]},
    {"molecule": "CC(=O)NCCOC(=O)C(Oc1cccc(C(F)(F)F)c1)c1ccc(Cl)cc1", "note": "(single isomer, unassigned; (+)) [(+) halofenate, (+) 2-Acetamidoethyl 4-Chlorophenyl-(3-trifluoromethylphenoxy)-acetate, reference compound]", "values": [
      {"measurement": "insulin sensitivity (slope of decline in glucose after i.v. insulin), in words", "setting": "Zucker fatty rats [7]", "value": "small effect on insulin sensitivity that was not significantly different from the vehicle-treated control"},
      {"measurement": "lowering of plasma triglyceride vs control at 7 days, in words", "setting": "[1]; 37.5 mg/kg/day (High dose)", "value": "significant lowering of plasma triglyceride"},
      {"measurement": "days of treatment with significant plasma cholesterol decrease vs control", "setting": "[1]; 37.5 mg/kg/day (High dose), 37.5 mg/kg/day", "value": "after 7 days but not after 14 days"},
      {"measurement": "plasma cholesterol course during treatment, in words", "setting": "[1]", "value": "remained relatively constant"},
      {"measurement": "overnight fasting plasma insulin after 5 days, in words", "setting": "diabetic ob/ob mice [3]; 125 mg/kg/day oral, listed as (+) enantiomer, 125 mg/kg/day", "value": "did not lower plasma insulin"},
      {"measurement": "overnight fasting plasma insulin after 5 days, in words", "setting": "diabetic ob/ob mice [3]; [10]", "value": "decrease in plasma insulin"},
      {"measurement": "time points with reduced plasma insulin vs control", "setting": "diabetic ob/ob mice [3]; [10]", "value": "greatest extent of reduced plasma insulin was noted at 27 and 30 hours"},
      {"measurement": "plasma uric acid levels vs vehicle, in words", "setting": "[8]", "value": "lowered plasma uric acid levels, but it was not statistically significant"},
      {"measurement": "incremental glucose area under the curve (AUC) vs control, in words", "setting": "Zucker fatty rats [4]", "value": "not statistically significant"},
      {"measurement": "plasma glucose compared to vehicle-treated animals, in words", "setting": "ZDF rats", "value": "failed to reduce plasma glucose concentrations"}
    ]},
    {"molecule": "O=C(O)C(Oc1cccc(C(F)(F)F)c1)c1ccc(Cl)cc1", "note": "(single isomer, unassigned; (+)) [(+) halofenic acid, (+) 4-chlorophenyl-(3-trifluoromethylphenoxy)-acetic acid, reference compound]", "values": [
      {"measurement": "IC50", "setting": "[5]", "value": 220, "unit": "nM"},
      {"measurement": "plasma concentration at 0 hour", "setting": "[9]; individual rats 8, 9, 11", "value": "BQL (BQL = Below Quantifiable Limit < 1.00 μg/mL)"},
      {"measurement": "plasma concentration at 1 hour", "setting": "[9]; individual rats 8, 9, 11", "value": "1.12 μg/mL and BQL (BQL = Below Quantifiable Limit < 1.00 μg/mL) (2×)"},
      {"measurement": "plasma concentration at 2 hours", "setting": "[9]; individual rats 8, 9, 11", "value": "1.27 μg/mL and BQL (BQL = Below Quantifiable Limit < 1.00 μg/mL) and 1.09 μg/mL"},
      {"measurement": "plasma concentration at 4 hours", "setting": "[9]; individual rats 8, 9, 11", "value": "1.67 μg/mL and BQL (BQL = Below Quantifiable Limit < 1.00 μg/mL) and 1.95 μg/mL"},
      {"measurement": "plasma concentration at 6 hours", "setting": "[9]; individual rats 8, 9, 11", "value": "2.96 μg/mL and BQL (BQL = Below Quantifiable Limit < 1.00 μg/mL) and 1.73 μg/mL"},
      {"measurement": "plasma concentration at 8 hours", "setting": "[9]; individual rats 8, 9, 11", "value": "2.58 μg/mL and BQL (BQL = Below Quantifiable Limit < 1.00 μg/mL) and 2.06 μg/mL"},
      {"measurement": "plasma concentration at 12 hours", "setting": "[9]; individual rats 8, 9, 11", "value": "2850 ng/mL and 2230 ng/mL and 2080 ng/mL"},
      {"measurement": "plasma concentration at 24 hours", "setting": "[9]; individual rats 8, 9, 11", "value": "2220 ng/mL and 1290 ng/mL and 1860 ng/mL"},
      {"measurement": "plasma concentration at 48 hours", "setting": "[9]; individual rats 8, 9, 11", "value": "1640 ng/mL and 1030 ng/mL and 1140 ng/mL"},
      {"measurement": "plasma concentration at 72 hours", "setting": "[9]; individual rats 8, 9, 11", "value": "1.25 μg/mL and BQL (BQL = Below Quantifiable Limit < 1.00 μg/mL) (2×)"},
      {"measurement": "plasma concentration at 96 hours", "setting": "[9]; individual rats 8, 11", "value": "BQL (BQL = Below Quantifiable Limit < 1.00 μg/mL)"},
      {"measurement": "plasma concentration at 120 hours", "setting": "[9]; rat 8", "value": "BQL (BQL = Below Quantifiable Limit < 1.00 μg/mL)"},
      {"measurement": "inhibition of cytochrome P450 2C9, in words", "setting": "[6]", "value": "quite potent"}
    ]}
  ]
}
